According to the supplement of paper PMC10307832:

Assays:
Experiment in all cases: relative viability (nuclei count vs DMSO), 5 days (fraction); higher = more cells survive
Salubrinal + Vorinostat = compound: O=C(/C=C/c1ccccc1)NC(NC(=S)Nc1cccc2cccnc12)C(Cl)(Cl)Cl [Salubrinal] + O=C(CCCCCCC(=O)Nc1ccccc1)NO [Vorinostat] (partner 1 µM)
In short: (§1)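 Five library-drug doses in √10 steps were combined with a fixed anchor-drug dose, or a single drug was given alone, by pin tool to lung cancer cell lines in 1536-well plates the day after seeding. Nuclei were stained and counted after 5 days. Relative viability is the nuclei count in treated wells over that in vehicle wells, taken as the median of duplicate plates.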

[1] = compound: Cc1ccc2nc(NCCN)c3ncc(C)n3c2c1 + N=C(N)NC(=N)NCCc1ccccc1 [Phenformin] (partner 250 µM)
In short: as §1

Salubrinal + Lapatinib = compound: O=C(/C=C/c1ccccc1)NC(NC(=S)Nc1cccc2cccnc12)C(Cl)(Cl)Cl [Salubrinal] + CS(=O)(=O)CCNCc1ccc(-c2ccc3ncnc(Nc4ccc(OCc5cccc(F)c5)c(Cl)c4)c3c2)o1 [Lapatinib] (partner 2 µM)
In short: as §1

[2] = compound: Cc1ccc2nc(NCCN)c3ncc(C)n3c2c1 + O=C(CCCCCCC(=O)Nc1ccccc1)NO [Vorinostat] (partner 1 µM)
In short: as §1

Row | Cell Line | relative viability (Salubrinal + Vorinostat; first compound 0.08 µM) | relative viability (Salubrinal + Vorinostat; first compound 0.253 µM) | relative viability (Salubrinal + Vorinostat; first compound 0.8 µM) | relative viability (Salubrinal + Vorinostat; first compound 2.53 µM) | relative viability (Salubrinal + Vorinostat; first compound 8 µM) | relative viability ([1]; first compound 0.04 µM) | relative viability ([1]; first compound 0.1265 µM) | relative viability ([1]; first compound 0.4 µM) | relative viability ([1]; first compound 1.265 µM) | relative viability ([1]; first compound 4 µM) | relative viability (Salubrinal + Lapatinib; first compound 0.08 µM) | relative viability (Salubrinal + Lapatinib; first compound 0.253 µM) | relative viability (Salubrinal + Lapatinib; first compound 0.8 µM) | relative viability (Salubrinal + Lapatinib; first compound 2.53 µM) | relative viability (Salubrinal + Lapatinib; first compound 8 µM) | relative viability ([2]; first compound 0.04 µM) | relative viability ([2]; first compound 0.1265 µM) | relative viability ([2]; first compound 0.4 µM) | relative viability ([2]; first compound 1.265 µM) | relative viability ([2]; first compound 4 µM)
1 | COR-L 105 | 1.08 | 0.816 | 0.843 | 0.797 | 0.747 | 0.647 | 0.555 | 0.502 | 0.487 | 0.425 | 0.377 | 0.317 | 0.395 | 0.389 | 0.35 | 0.658 | 1.13 | 0.845 | 0.911 | 0.768
2 | RERF-LC-KJ | 0.784 | 0.642 | 0.745 | 0.673 | 0.721 | 0.404 | 0.374 | 0.462 | 0.453 | 0.353 | 0.871 | 0.75 | 0.837 | 0.828 | 0.822 | 0.749 | 0.773 | 0.713 | 0.861 | 0.712
3 | LXF-289 | 0.897 | 0.707 | 0.908 | 0.873 | 0.76 | 0.528 | 0.546 | 0.543 | 0.486 | 0.524 | 0.984 | 0.778 | 0.913 | 0.931 | 0.804 | 0.765 | 0.639 | 0.795 | 0.629 | 0.806
4 | PC-14 | 0.719 | 0.585 | 0.672 | 0.645 | 0.5 | 0.535 | 0.69 | 0.431 | 0.607 | 0.254 | 0.412 | 0.347 | 0.331 | 0.29 | 0.382 | 0.766 | 0.693 | 0.763 | 0.718 | 0.567
5 | NCI-H650 | 0.477 | 0.494 | 0.382 | 0.48 | 0.404 | 0.462 | 0.476 | 0.437 | 0.441 | 0.425 | 0.696 | 0.84 | 1.42 | 1.05 | 0.822 | 0.584 | 0.461 | 0.351 | 0.534 | 0.409
6 | NCI-H1666 | 0.99 | 0.886 | 0.99 | 1.16 | 1.11 | 0.574 | 0.573 | 0.521 | 0.495 | 0.535 | 0.582 | 0.56 | 0.767 | 0.58 | 0.691 | 1.06 | 1.05 | 0.925 | 0.944 | 1.05
7 | NCI-H2085 | 0.832 | 0.785 | 0.837 | 0.771 | 0.878 | 0.817 | 0.762 | 0.711 | 0.722 | 0.744 | 0.684 | 0.793 | 0.898 | 0.854 | 0.737 | 0.816 | 0.784 | 0.77 | 0.857 | 0.808
8 | NCI-H1734 | 0.834 | 0.801 | 0.916 | 0.77 | 0.745 | 0.425 | 0.417 | 0.355 | 0.38 | 0.389 | 1.11 | 1.08 | 1.18 | 1.05 | 1.02 | 0.816 | 0.824 | 0.637 | 0.733 | 0.77
9 | NCI-H2126 | 0.87 | 0.72 | 0.888 | 0.763 | 0.719 | 0.528 | 0.544 | 0.516 | 0.535 | 0.506 | 0.704 | 0.701 | 0.801 | 0.82 | 0.707 | 0.931 | 0.821 | 0.788 | 0.835 | 0.755
10 | EMC-BAC-2 | 0.388 | 0.477 | 0.798 | 0.514 | 0.494 | 0.518 | 0.562 | 0.499 | 0.536 | 0.54 | 0.823 | 0.815 | 0.947 | 0.865 | 0.938 | 0.467 | 0.433 | 0.455 | 0.527 | 0.392
11 | NCI-H1993 | 0.939 | 0.592 | 0.805 | – | 0.867 | 0.506 | 0.514 | 0.591 | 0.552 | 0.495 | 0.887 | 0.866 | 0.814 | 1.14 | 0.9 | 0.797 | 0.776 | 0.727 | 0.856 | 0.649
12 | NCI-H520 | 0.755 | 0.675 | 0.787 | 0.638 | 0.67 | 0.633 | 0.573 | 0.445 | 0.517 | 0.478 | 0.921 | 0.767 | 1.25 | 0.847 | 0.769 | 0.719 | 0.725 | 0.808 | 0.674 | 0.574
13 | NCI-H647 | 0.546 | 0.547 | 0.773 | 0.504 | 0.683 | 0.758 | 0.533 | 0.494 | 0.539 | 0.476 | 1.31 | 0.687 | 1.31 | 1.2 | 0.829 | 0.691 | 0.384 | 0.571 | 0.492 | 0.328
14 | SK-LU-1 | 0.754 | 0.668 | 0.996 | 0.779 | 0.664 | 0.649 | 0.568 | 0.614 | 0.553 | 0.43 | 0.972 | 0.874 | 0.899 | 0.926 | 0.703 | 0.851 | 0.725 | 0.784 | 0.856 | 0.734
